Measured values taken from patent US11324774B2, “Compositions of oral alkaline salts and metabolic acid inducers and uses thereof” (Augusta University Research Institute, Inc., priority 2018, dated 2022).

Tested on: T-regulatory cells (FOXP3+ T-regs), TH17 cells
Test: Circulating T-regulatory and TH17 cells in rats
Type: in vivo
Conditions: rats, 4 days in drinking water

O=C([O-])CC(O)(CC(=O)[O-])C(=O)[O-].[Na+].[Na+].[Na+] [Na Citrate]
circulating anti-inflammatory T cells (FOXP3+ T-regs): no effect
